From PMC10073293, “Discovery of IHMT-MST1-39 as a novel MST1 kinase inhibitor and AMPK activator for the treatment of diabetes mellitus” (Signal Transduction and Targeted Therapy, 2023)
pIC50: −log10 of the molar value.

How the values were obtained:
MST2 = target: T1, MST2 (Homo sapiens, UniProt Q13188); experiment: biochemical kinase assay; KD also determined (Fig. 1c, d); KINOMEscan binding
T1 construct: gene STK3
T1 sequence (Q13188 1-491): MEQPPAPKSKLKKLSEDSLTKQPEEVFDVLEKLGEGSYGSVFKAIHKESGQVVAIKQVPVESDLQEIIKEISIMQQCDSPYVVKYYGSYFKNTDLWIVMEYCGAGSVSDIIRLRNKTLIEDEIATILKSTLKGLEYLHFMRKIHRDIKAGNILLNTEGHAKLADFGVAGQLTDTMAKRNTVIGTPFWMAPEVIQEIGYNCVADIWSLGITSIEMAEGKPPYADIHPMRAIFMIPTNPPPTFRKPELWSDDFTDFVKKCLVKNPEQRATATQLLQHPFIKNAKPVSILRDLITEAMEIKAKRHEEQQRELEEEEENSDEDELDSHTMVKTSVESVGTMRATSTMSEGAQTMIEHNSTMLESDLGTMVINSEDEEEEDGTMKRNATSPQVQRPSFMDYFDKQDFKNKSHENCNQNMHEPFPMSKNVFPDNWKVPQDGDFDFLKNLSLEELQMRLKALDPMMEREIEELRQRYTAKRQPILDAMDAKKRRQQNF

[1] = target: T2, MST1 (mammalian sterile 20-like kinase 1) (Homo sapiens, UniProt Q13043)
T2 construct: gene STK4
T2 sequence (Q13043 whole entry): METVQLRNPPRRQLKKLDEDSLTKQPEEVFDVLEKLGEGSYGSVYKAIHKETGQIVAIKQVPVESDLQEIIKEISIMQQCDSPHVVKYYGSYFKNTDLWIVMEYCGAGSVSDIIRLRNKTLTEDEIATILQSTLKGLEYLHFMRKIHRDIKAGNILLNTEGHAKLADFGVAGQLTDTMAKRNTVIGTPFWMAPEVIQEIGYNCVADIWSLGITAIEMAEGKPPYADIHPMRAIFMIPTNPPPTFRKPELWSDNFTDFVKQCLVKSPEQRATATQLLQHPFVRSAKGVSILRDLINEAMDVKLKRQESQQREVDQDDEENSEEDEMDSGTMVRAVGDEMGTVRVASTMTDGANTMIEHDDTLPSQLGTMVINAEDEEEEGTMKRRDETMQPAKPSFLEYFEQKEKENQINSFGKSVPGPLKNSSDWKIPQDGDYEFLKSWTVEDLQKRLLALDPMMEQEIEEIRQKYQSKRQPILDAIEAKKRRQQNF

In the case of CN1C(=O)C(c2c(F)cccc2F)N(C)c2nc(Nc3ccc(S(N)(=O)=O)cc3)ncc21 (centres unmarked) [IHMT-MST1-39], the pIC50 (MST2) was 6.96 and the pIC50 [1] was 7.38.
